# Measurements from ChEMBL document CHEMBL1201862, “PubChem BioAssay data set” (2004).
#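 Cultured in 96-well plates, cells were exposed to test compound for 48 hours across five concentrations. GI50: concentration for 50% inhibition of growth.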 Calls of active or inactive are those of the source. No stated cut-off is given here; in the data, active = GI50 up to about 1.1 µM and inactive = higher.
# Assays:
# Assay in all cases: DTP human tumour cell line panel, 48 h
# [1] = test system: SK-OV-3
# [2] = test system: PC-3
# [3] = test system: COLO 205
# [4] = test system: M14
# [5] = test system: K562
# [6] = test system: SNB-75
# [7] = test system: A549
# [8] = test system: NCI-H226
# [9] = test system: SW-620
# [10] = test system: MDA-MB-231
# [11] = test system: U-251
# [12] = test system: IGROV-1
# [13] = test system: BT-549
# [14] = test system: OVCAR-3
# [15] = test system: HOP-62
# [16] = test system: UACC-257
# [17] = test system: UO-31
# [18] = test system: HCT-116
# [19] = test system: A498
# [20] = test system: ACHN
SMILES,GI50 [1],GI50 [2],GI50 [3],GI50 [4],GI50 [5],GI50 [6],GI50 [7],GI50 [8],GI50 [9],GI50 [10],GI50 [11],GI50 [12],GI50 [13],GI50 [14],GI50 [15],GI50 [16],GI50 [17],GI50 [18],GI50 [19],GI50 [20]
CC(C)c1ccc2c(c1)CCC1C(C)(CN)CCCC21C (stereo unspecified),2.11 µM (inactive),1.59 µM (inactive),0.575 µM (active),1.67 µM (inactive),0.551 µM (active),1.94 µM (inactive),1.8 µM (inactive),1.91 µM (inactive),1.29 µM (inactive),1.42 µM (inactive),1.38 µM (inactive),1.71 µM (inactive),1.88 µM (inactive),1.7 µM (inactive),1.75 µM (inactive),1.69 µM (inactive),1.39 µM (inactive),1.59 µM (inactive),1.61 µM (inactive),1.74 µM (inactive)
C[C@]12CC[C@@H]3c4cc(OCC(F)(F)F)c(O)cc4C(=O)C[C@H]3[C@@H]1CC[C@@H]2O,10.6 µM (inactive),18.5 µM (inactive),26.6 µM (inactive),5.77 µM (inactive),2.26 µM (inactive),5.36 µM (inactive),6.98 µM (inactive),22.5 µM (inactive),4.02 µM (inactive),12.9 µM (inactive),4.67 µM (inactive),13.6 µM (inactive),6.34 µM (inactive),2.88 µM (inactive),12.6 µM (inactive),12.2 µM (inactive),13.6 µM (inactive),3.72 µM (inactive),7.93 µM (inactive),20.7 µM (inactive)
Cc1cc(NC2=CC(=O)C(=O)c3ccccc32)no1,19.4 µM (inactive),10.3 µM (inactive),16.1 µM (inactive),14.8 µM (inactive),3.89 µM (inactive),9.44 µM (inactive),5 µM (inactive),17.6 µM (inactive),4.94 µM (inactive),2.83 µM (inactive),3.92 µM (inactive),8.28 µM (inactive),5.53 µM (inactive),3.85 µM (inactive),17.6 µM (inactive),6.92 µM (inactive),7.94 µM (inactive),14.7 µM (inactive),18.7 µM (inactive),11.7 µM (inactive)
COC(=O)c1ccccc1OCc1cc(=O)oc2ccc(C)cc12,63.8 µM (inactive),> 100 µM (inactive),> 100 µM (inactive),> 87.7 µM (inactive),> 100 µM (inactive),16.2 µM (inactive),82.2 µM (inactive),90.4 µM (inactive),> 65.8 µM (inactive),84.9 µM (inactive),14.4 µM (inactive),64.7 µM (inactive),18.1 µM (inactive),29.4 µM (inactive),20 µM (inactive),> 87.3 µM (inactive),> 100 µM (inactive),43.1 µM (inactive),> 100 µM (inactive),63.2 µM (inactive)
COc1ccccc1Cn1c2c(c3c(C(=O)NCCN(C)C)c(O)ccc31)C(=O)c1ccccc1C2=O,6.52 µM (inactive),2.09 µM (inactive),1.94 µM (inactive),1.32 µM (inactive),0.977 µM (active),1.55 µM (inactive),1.82 µM (inactive),10.4 µM (inactive),,1.99 µM (inactive),1.91 µM (inactive),1.68 µM (inactive),7.13 µM (inactive),1.99 µM (inactive),1.92 µM (inactive),1.79 µM (inactive),1.75 µM (inactive),0.759 µM (active),5.26 µM (inactive),1.64 µM (inactive)
C(=N/c1ccccc1C1SCCCS1)/c1ccccc1,> 100 µM (inactive),> 100 µM (inactive),> 100 µM (inactive),> 100 µM (inactive),> 100 µM (inactive),> 100 µM (inactive),> 100 µM (inactive),> 100 µM (inactive),> 100 µM (inactive),> 100 µM (inactive),> 100 µM (inactive),> 100 µM (inactive),> 100 µM (inactive),> 100 µM (inactive),> 100 µM (inactive),> 100 µM (inactive),> 100 µM (inactive),> 100 µM (inactive),> 100 µM (inactive),> 100 µM (inactive)
O/N=C(\C=N\O)c1ccc2c(c1)Sc1ccccc1O2,18.1 µM (inactive),14.8 µM (inactive),21.4 µM (inactive),19.9 µM (inactive),22.1 µM (inactive),16.1 µM (inactive),30.8 µM (inactive),23.2 µM (inactive),22.9 µM (inactive),15.7 µM (inactive),26.8 µM (inactive),,14.5 µM (inactive),17.7 µM (inactive),17.5 µM (inactive),19.5 µM (inactive),21.4 µM (inactive),18 µM (inactive),15.6 µM (inactive),19.9 µM (inactive)
Cc1cc(C)nc(NS(=O)(=O)c2ccc(NC(=O)c3c4ccccc4nc4ccccc34)cc2)n1,> 100 µM (inactive),> 100 µM (inactive),75.2 µM (inactive),> 100 µM (inactive),> 100 µM (inactive),> 100 µM (inactive),> 100 µM (inactive),35.9 µM (inactive),> 100 µM (inactive),> 100 µM (inactive),69.3 µM (inactive),31.2 µM (inactive),96.4 µM (inactive),56.9 µM (inactive),61.7 µM (inactive),> 100 µM (inactive),37.4 µM (inactive),68.4 µM (inactive),> 100 µM (inactive),84.7 µM (inactive)
Cn1ccc(C(=O)NCCN(CCNC(=O)c2ccn(C)c(=O)c2O)CCNC(=O)c2cccc(=O)n2O)c(O)c1=O,> 100 µM (inactive),> 100 µM (inactive),> 100 µM (inactive),> 100 µM (inactive),> 100 µM (inactive),> 100 µM (inactive),> 100 µM (inactive),> 100 µM (inactive),> 100 µM (inactive),> 100 µM (inactive),> 100 µM (inactive),29.2 µM (inactive),> 100 µM (inactive),> 100 µM (inactive),> 100 µM (inactive),> 100 µM (inactive),> 100 µM (inactive),> 100 µM (inactive),> 100 µM (inactive),> 100 µM (inactive)
CCOC(=O)C(CC(C)C)NC(=O)CSc1nnc(COc2ccc(Cl)cc2)n1-c1ccccc1 (stereo unspecified),27.2 µM (inactive),17.1 µM (inactive),18.2 µM (inactive),18 µM (inactive),19.3 µM (inactive),16.5 µM (inactive),21.2 µM (inactive),22.4 µM (inactive),20 µM (inactive),16.9 µM (inactive),19.3 µM (inactive),15.4 µM (inactive),17.7 µM (inactive),10.5 µM (inactive),19.4 µM (inactive),11.2 µM (inactive),1.86 µM (inactive),14.8 µM (inactive),12.7 µM (inactive),13.3 µM (inactive)
O=[N+]([O-])c1ccccc1S(=O)(=O)N1CCCc2cc(Cl)ccc21,26.9 µM (inactive),18 µM (inactive),38.7 µM (inactive),46.5 µM (inactive),3.46 µM (inactive),4.59 µM (inactive),38.7 µM (inactive),> 100 µM (inactive),17.1 µM (inactive),> 56.5 µM (inactive),,39 µM (inactive),8.91 µM (inactive),26.2 µM (inactive),60.3 µM (inactive),12.6 µM (inactive),30.6 µM (inactive),16.2 µM (inactive),27.2 µM (inactive),> 51.6 µM (inactive)
COC(OC)[C@@H]1OC[C@@H](O)[C@@H]1n1cnc2c(N)ncnc21,> 100 µM (inactive),> 100 µM (inactive),> 100 µM (inactive),> 100 µM (inactive),> 100 µM (inactive),> 100 µM (inactive),,> 100 µM (inactive),> 100 µM (inactive),> 100 µM (inactive),> 100 µM (inactive),> 100 µM (inactive),> 100 µM (inactive),> 100 µM (inactive),> 100 µM (inactive),> 100 µM (inactive),> 100 µM (inactive),> 100 µM (inactive),> 100 µM (inactive),> 100 µM (inactive)
Cc1c(O)c(OC2OC(CO)C(O)C(O)C2O)cc2c1CC[C@@H]1C2(C)C(=O)C[C@]2(C)[C@@H]([C@@](C)(O)C(O)/C=C/C(C)(C)O)[C@H](O)C[C@@]12C (stereo partly specified),> 100 µM (inactive),> 100 µM (inactive),> 100 µM (inactive),> 100 µM (inactive),> 100 µM (inactive),> 100 µM (inactive),> 100 µM (inactive),> 100 µM (inactive),> 100 µM (inactive),> 100 µM (inactive),> 100 µM (inactive),> 100 µM (inactive),> 100 µM (inactive),> 100 µM (inactive),> 100 µM (inactive),> 100 µM (inactive),> 100 µM (inactive),> 100 µM (inactive),> 100 µM (inactive),> 100 µM (inactive)
Cc1cnc2nc(-c3sccc3C)cc(O)c2c1,4.03 µM (inactive),3.78 µM (inactive),3.21 µM (inactive),2.25 µM (inactive),5.04 µM (inactive),4.32 µM (inactive),3.96 µM (inactive),4.14 µM (inactive),1.91 µM (inactive),18.1 µM (inactive),4.86 µM (inactive),1.49 µM (inactive),9.42 µM (inactive),3.13 µM (inactive),5.08 µM (inactive),8.38 µM (inactive),6.25 µM (inactive),3.33 µM (inactive),23.4 µM (inactive),8.85 µM (inactive)
